Patent publication US7115603B2, “A1-pyrrolines” (priority 2001, dated 2006)
Read-outs that look alike come from different tables or passages of the source.

Legend:
[1] = system: Heliothis virescens caterpillars; assay: Heliothis virescens test (soya bean shoots dipped); format: in vivo; conditions: kill, 100 ppm active compound
Method: (§1) [table] To produce a suitable preparation of active compound, 1 part by weight of active compound is mixed with the stated amounts of solvent and emulsifier, and the concentrate is diluted with emulsifier-containing water to the desired concentration. Soya bean shoots (Glycine max) are treated by being dipped into the preparation of active compound of the desired concentration and are populated with Heliothis virescens caterpillars whilst the leaves are still moist. After the desired period of time, the kill in % is determined. 100% means that all caterpillars have been killed; 0% means that none of the caterpillars has been killed.

[2] = system: army worm (Spodoptera frugiperda) caterpillars; assay: Spodoptera frugiperda test (cabbage leaves dipped); format: in vivo; conditions: 168 h, kill, 100 ppm active compound, 7 d, read-out: Efficacy in % after 7 d
Method: as §1, with “Cabbage leaves (Brassica oleracea)” for “Soya bean shoots (Glycine max)”, “army worm (Spodoptera frugiperda)” for “Heliothis virescens”

[3] = system: larvae of the mustard beetle (Phaedon cochleariae); assay: Phaedon larvae test (cabbage leaves dipped); format: in vivo; conditions: 168 h, kill, 7 d, read-out: Efficacy in % after 7 d; for pest or weed control at 100 ppm: 100 ppm active compound
Method: as §1, with “Cabbage leaves (Brassica oleracea)” for “Soya bean shoots (Glycine max)”, “larvae of the mustard beetle (Phaedon cochleariae)” for “Heliothis virescens caterpillars”, “beetle larvae” for “caterpillars”

[4] = log P by HPLC on reversed-phase column (EEC Directive 79/831 Annex V.A8); format: physicochemical
Method: The log p values reported in the above tables and preparation examples are determined in accordance with EEC Directive 79/831 Annex V.A8 by means of HPLC (high performance liquid chromatography) on a reversed-phase column (C 18). Temperature: 43° C.
Determination is carried out in the acidic range at a pH of 2.3 using 0.1% aqueous phosphoric acid and acetonitrile as mobile phases; linear gradient from 10% acetonitrile to 90% acetonitrile. The values are marked in the tables with ^a).
Determination takes place in the neutral range at a pH of 7.5 with 0.01-molar aqueous phosphate buffer solution and acetonitrile as mobile phases; linear gradient from 10% acetonitrile to 90% acetonitrile. The values are marked in the tables with ^b).
The calibration is carried out using unbranched alkan-2-ones (having from 3 to 16 carbon atoms) whose logP values are known (logP values determined on the basis of the retention times, using linear interpolation between two successive alkanones).

[5] = system: cabbage moth (Plutella xylostella) caterpillars; assay: Plutella test (cabbage leaves dipped); format: in vivo; conditions: kill
Method: as §1, with “Cabbage leaves (Brassica oleracea)” for “Soya bean shoots (Glycine max)”, “cabbage moth (Plutella xylostella)” for “Heliothis virescens”

[6] = system: fruit tree red spider mite (Panonychus ulmi); assay: Panonychus test (plum trees dipped); format: in vivo; conditions: kill of spider mites, 100 ppm active compound
Method: To produce a suitable preparation of active compound, 1 part by weight of active compound is mixed with the stated amounts of solvent and emulsifier, and the concentrate is diluted with emulsifier-containing water to the desired concentration.
Plum trees (Prunus domestica) about 30 cm high which are heavily infested by all stages of the fruit tree red spider mite (Panonychus ulmi) are dipped into a preparation of active compound of the desired concentration.
After the desired period of time, the effect in % is determined. 100% means that all spider mites have been killed; 0% means that none of the spider mites has been killed.

[7] = system: cotton aphid (Aphis gossypii); assay: Aphis gossypii test (cotton leaves dipped); format: in vivo; conditions: kill, 100 ppm active compound
Method: as §1, with “Cotton leaves (Gossypium hirsutum) heavily infested by the cotton aphid (Aphis gossypii)” for “Soya bean shoots (Glycine max)”, “concentration.” for “concentration and are populated with Heliothis virescens caterpillars whilst the leaves are still moist.”, “[…]” for “caterpillars”

[8] = system: army worm (Spodoptera exigua) caterpillars; assay: Spodoptera exigua test (cabbage leaves dipped); format: in vivo; conditions: kill
Method: as §1, with “Cabbage leaves (Brassica oleracea)” for “Soya bean shoots (Glycine max)”, “army worm (Spodoptera exigua)” for “Heliothis virescens”

[9] = system: caterpillars of the cotton bollworm (Heliothis armigera); assay: Heliothis armigera test (soya bean shoots dipped); format: in vivo; conditions: kill, 20 ppm active compound
Method: [table] To produce a suitable preparation of active compound, 1 part by weight of active compound is mixed with the stated amounts of solvent and emulsifier, and the concentrate is diluted with emulsifier-containing water to the desired concentration. Soya bean shoots (Glycine max) are treated by being dipped into the preparation of active compound of the desired concentration and are populated with caterpillars of the cotton bollworm (Heliothis armigera) whilst the leaves are still moist. After the desired period of time, the kill in % is determined. 100% means that all […] have been killed; 0% means that none of the caterpillars has been killed.

Lucilia cuprina larvae = assay: Blowfly larvae test/development-inhibiting effect; format: in vivo; conditions: for mortality at 100 ppm: 100 ppm active compound; for mortality at 20 ppm: 20 ppm active compound
Method: 20 mg of active compound are dissolved in 1 ml of dimethyl sulphoxide; lower concentrations are prepared by dilution with distilled water.
About 20 Lucilia cuprina larvae are introduced into a test tube containing about 1 cm^3 of horse meat and 0.5 ml of the test preparation of active compound. After 24 and 48 hours, the activity of the preparation is determined. The test tubes are transferred to beakers with their bases covered with sand. After a further 14 days, the test tubes are removed and the pupae/flies are counted.
The effect of the preparation is assessed according to the number of flies which have hatched after 1.5 times the development period of an untreated control. 100% means that no flies have hatched; 0% means that all of the flies have hatched normally.

[10] = system: greenhouse red spider mite (Tetranychus urticae); assay: Tetranychus test (OP resistant/dip treatment); format: in vivo; conditions: kill of spider mites, 100 ppm active compound
Method: [table] To produce a suitable preparation of active compound, 1 part by weight of active compound is mixed with the stated amounts of solvent and emulsifier, and the concentrate is diluted with emulsifier-containing water to the desired concentration. Bean plants (Phaseolus vulgaris) which are heavily infested by all stages of the greenhouse red spider mite (Tetranychus urticae) are dipped into a preparation of active compound of the desired concentration. After the desired period of time, the effect in % is determined. 100% means that all spider mites have been killed; 0% means that none of the spider mites has been killed.

[11] = reversed-phase HPLC column (C18); HPLC, acidic range pH 2.3, marked a)
[12] = reversed-phase HPLC column (C18); HPLC, neutral range pH 7.5, marked b)
[13] = 336 h, 14 d, inhibition of fly hatching, read-out: % Activity/kill (14 d)

In the case of `CC(C)Oc1ccc(-c2ccc(C3CCC(c4c(F)cccc4F)=N3)cc2)cn1` (stereo not drawn) [compound 7], the “Efficacy in % after 7 d” value [1] is reported as 100%, the pest or weed control at 100 ppm [2] is reported as 100% and the pest or weed control at 100 ppm [3] is reported as 100%. For the same molecule, the chromatographic logP [4, 11] was 3.42, the chromatographic logP [4, 12] was 4.73 and the “Efficacy in % after 7 d” value ([5]; 100 ppm active compound) was 100%. For the same molecule, the “Efficacy in % after 7 d” value [6] was 100%, the “Efficacy in % after 6 d” value [7] was 99% and the “Efficacy in % after 7 d” value ([8]; 100 ppm active compound) was 100%.
With `Fc1cccc(F)c1C1=NC(c2ccc(-c3ccc(OCC4CC4)nc3)cc2)CC1` (stereo not drawn) [compound 25] the pest or weed control at 100 ppm [2] was 100%, the pest or weed control at 100 ppm [3] was 100% and the “Efficacy in % after 7 d” value [9] was 100%. It also gave a chromatographic logP [4, 11] of 3.48, a chromatographic logP [4, 12] of 4.67 and a mortality at 100 ppm (Lucilia cuprina larvae; 48 h, read-out: % Activity/kill (48 h)) of 100%. The mortality at 20 ppm (Lucilia cuprina larvae; [13]) was 100%, the “Efficacy in % after 7 d” value ([5]; 20 ppm active compound) was 100% and the “Efficacy in % after 7 d” value ([8]; 20 ppm active compound) was 100%.
With `CC(C)Sc1ccc(-c2ccc(C3CCC(c4c(F)cccc4F)=N3)cc2)cn1` (stereo not drawn) [compound 8] the “Efficacy in % after 7 d” value [1] was 100%, the pest or weed control at 100 ppm [2] was 100% and the pest or weed control at 100 ppm [3] was 100%. For the same molecule, the chromatographic logP [4, 11] was 3.8, the chromatographic logP [4, 12] was 4.96 and the “Efficacy in % after 7 d” value ([5]; 100 ppm active compound) was 100%. The “Efficacy in % after 7 d” value [10] was 98% and the “Efficacy in % after 7 d” value ([8]; 100 ppm active compound) was 100%.
In the case of `CCOc1ccc(Br)cn1` [III-1, 5-bromo-2-ethoxypyridine], the chromatographic logP [4, 11] is reported as 2.92.
`Fc1cccc(F)c1C1=NC(c2ccc(-c3ccc(OC4CCC4)nc3)cc2)CC1` (stereo not drawn) [compound 19] showed a pest or weed control at 100 ppm [2] of 100%, a pest or weed control at 20 ppm ([3]; 20 ppm active compound) of 100% and a chromatographic logP [4, 11] of 3.66. For the same molecule, the chromatographic logP [4, 12] was 4.9, the mortality at 20 ppm (Lucilia cuprina larvae; [13]) was 100% and the mortality at 100 ppm (Lucilia cuprina larvae; [13]) was 100%. The “Efficacy in % after 7 d” value [10] was 95%.
Molecule `Fc1cccc(F)c1C1=NC(c2ccc(-c3ccc(OC4CCCC4)nc3)cc2)CC1` (stereo not drawn) [compound 21] has a pest or weed control at 100 ppm [2] of 100%, a pest or weed control at 100 ppm [3] of 100% and a chromatographic logP [4, 11] of 3.99. For the same molecule, the chromatographic logP [4, 12] was 5.34 and the “Efficacy in % after 7 d” value [10] was 95%.
With `CCCOc1ccc(-c2ccc(C3CCC(c4c(F)cccc4F)=N3)cc2)cn1` (stereo not drawn) [compound 5] the “Efficacy in % after 7 d” value [1] was 100%, the pest or weed control at 100 ppm [2] was 100% and the pest or weed control at 100 ppm [3] was 100%. For the same molecule, the chromatographic logP [4, 11] was 3.42, the chromatographic logP [4, 12] was 4.77 and the “Efficacy in % after 7 d” value ([5]; 100 ppm active compound) was 100%. The “Efficacy in % after 6 d” value [7] was 99%, the “Efficacy in % after 7 d” value [10] was 98% and the “Efficacy in % after 7 d” value ([8]; 100 ppm active compound) was 100%.
For `CCSc1ccc(-c2ccc(C3CCC(c4c(F)cccc4F)=N3)cc2)cn1` (stereo not drawn) [compound 4], the “Efficacy in % after 7 d” value [1] was 100%, the pest or weed control at 100 ppm [2] was 100% and the pest or weed control at 100 ppm [3] was 100%. It also gave a chromatographic logP [4, 11] of 3.29, a chromatographic logP [4, 12] of 4.54 and a mortality at 100 ppm (Lucilia cuprina larvae; [13]) of 100%. The “Efficacy in % after 7 d” value ([5]; 100 ppm active compound) was 100%, the “Efficacy in % after 7 d” value [10] was 95% and the “Efficacy in % after 7 d” value ([8]; 100 ppm active compound) was 100%.
Work on `CCOc1ccc(-c2ccc(C3CCC(c4c(F)cccc4F)=N3)cc2)cn1` (stereo not drawn) [No. 1, 5-{4-[5-(2,6-difluorophenyl)-3,4-dihydro-2H-pyrrol-2-yl]phenyl}-2-ethoxypyridine] yielded a pest or weed control at 100 ppm [2] of 100%, a pest or weed control at 100 ppm [3] of 100% and a chromatographic logP [4, 11] of 2.92.
